Legend:
Format in all cases: in vitro ADME
[1] = oxidative metabolism in liver microsomes from rats; settings: rat liver microsomes, 15 min incubation
Procedure: All liver microsomal and cytosolic fractions were prepared using the following procedure. Thawed livers were homogenized with 2 volumes of 50 mM Tris-buffer (pH 7.5) containing 1.15% KCl. For microsomal and cytosolic preparations, the homogenate was centrifuged for 20 min at 9,000×g and the resulting supernatant was centrifuged for 60 min at 105,000×g. The resulting cytosolic fractions were re-centrifuged at 105,000×g for 60 min. Fractions of cytosol were aliquoted into small tubes and stored at −70° C. Subsequently, the microsomal pellets were washed with 10 mM EDTA containing 1.15% KCl and were centrifuged at 105,000×g for 60 min. Washed microsomes were resuspended in 10 mM potassium phosphate buffer (pH 7.4) containing 250 mM sucrose, aliquoted into small tubes, and stored at −70° C. Protein concentrations were determined by a modified Lowry assay (Smith et al., 1985). The specific cytochrome P450 content in each microsomal preparation was measured as described by Omura and Sato, J. Biol. Chem. 239, 2370-2378 (1964). […]
Method A was conducted on a Shimadzu HPLC system (Shimadzu Scientific Instruments Inc., Columbia Md.). The parent compounds and their metabolites were monitored directly using a radiometric detector (INUS Systems Inc. Tampa, Fla.) and Ultima-Flow M (Packard Instrument Co., Meridan Conn.) as scintillant at a flow rate of 3 mL/min. […]

[2] = glucuronidation in liver microsomes from rats; settings: rat liver microsomes, UDPGA, 37° C. for 60 min
Procedure: All liver microsomal and cytosolic fractions were prepared using the following procedure. Thawed livers were homogenized with 2 volumes of 50 mM Tris-buffer (pH 7.5) containing 1.15% KCl. For microsomal and cytosolic preparations, the homogenate was centrifuged for 20 min at 9,000×g and the resulting supernatant was centrifuged for 60 min at 105,000×g. The resulting cytosolic fractions were re-centrifuged at 105,000×g for 60 min. Fractions of cytosol were aliquoted into small tubes and stored at −70° C. Subsequently, the microsomal pellets were washed with 10 mM EDTA containing 1.15% KCl and were centrifuged at 105,000×g for 60 min. […] Protein concentrations were determined by a modified Lowry assay (Smith et al., 1985). The specific cytochrome P450 content in each microsomal preparation was measured as described by Omura and Sato, J. Biol. Chem. 239, 2370-2378 (1964).
The typical reaction mixture (500 μl) containing 10 mM MgCl2, 2% glycerol, 0.02% lubrol PX, 3 mM UDPGA, 1 mg liver microsomes, 50 mM bis-tris propane buffer (pH 8.5) and ˜10 or 25 μM compound (in 15 μl methanol) was incubated at 37° C. for 30-60 min. After incubation, the reactions were terminated by the addition of four volumes of acetonitrile and processed and analyzed by HPLC as mentioned above.

[3] = molecular target: T1, recombinant human CYP isozymes (Homo sapiens, UniProt P08684); assay: metabolism by microsomes containing recombinant human CYP isozymes; settings: parent to M-1 (N-dealkylation); M-1 to M-2 (oxidation); M-3 to M-4 (hydroxylation); M-2 to M-5 (conversion)
T1 construct: host or cells: Baculovirus-infected sf21 insect cells (microsomes)
Procedure: Hepatocytes were harvested from male Sprague-Dawley rat livers or human livers and cultured on a matrigel support and treated with 0.1 μM dexamethasone or 50 μM rifampicin, respectively, for 48 hr prior to the addition of the test compounds. A 2.5 mM stock solution of [^14C]2-(R)-(1-(R)-(3,5-bis(trifluoromethyl)-phenyl)ethoxy)-3-(S)-(4-fluoro)phenyl-4-(3-(5-oxo-1H,4H-1,2,4-triazolo)methylmorpholine, [^14C]M-1 or [^14C]M-2 in DMSO was added to the plates such that the final concentration of test compound was 25 μM and DMSO was 1% (v/v). The cultures were incubated for 4, 6 or 24 hr for rat hepatocytes and 48 hr for human hepatocytes. The incubation mixtures (500 μL) contained 10 μM of test compound, 100 mM phosphate buffer pH 7.4, NADPH-regenerating system, microsomes containing expressed CYP isoforms (CYP1A2, CYP2A6, CYP2B6, CYP2C8, CYP2C9, CYP2C19, CYP2D6, CYP2E1 or CYP3A4) and cytochrome P-450 reductase. The reactions were initiated by adding NADP and proceeded at 37° C. for 15-45 min. Acetonitrile extracts from microsomal and hepatocyte incubates were dissolved in 50% aqueous methanol and fractionated by HPLC. The separation was accomplished on a Zorbax RX C8 analytical column (5 μm, 4.6×250 mm). The mobile phase consisted of solvent A (10 mM ammonium acetate in water) and solvent B (7.3 mM ammonium acetate in 92.7% acetonitrile and 7.3% methanol. The column was eluted by a linear gradient from 35 to 80% B over 40 min at a flow rate of 1 mL/min. Fractions of major metabolites were subjected to LC-MS/MS analysis. Further purification was done using isocratic conditions prior to NMR analysis.
The incubation mixtures (500 μL) contained 10 or 25 μM of test compounds, 100 mM phosphate buffer pH 7.4, NADPH-regenerating system (5 mM glucose-6-phosphate, 1 mM NADP and 0.7 I.U/mL glucose 6-phosphate dehydrogenase), 0.5 to 2 mg/mL liver microsomal protein prepared from rats and humans or microsomes from Baculovirus-infected sf21 cells containing 20 to 200 pmol expressed CYP isoforms (CYP1A2, CYP2A6, CYP2B6, CYP2C8, CYP2C9, CYP2C19, CYP2D6, CYP2E1 or CYP3A4) and cytochrome P450 reductase. Stock solutions of the substrates in methanol were made such that final concentration of methanol in the reaction mixture was 3%. The reactions were initiated by adding 50 μL of 10 mM NADP and proceeded at 37° C. for 15-45 min. After incubation, the reactions were terminated by the addition of four volumes of acetonitrile. The suspensions were mixed vigorously and centrifuged at 3000×g for 5 min. The supernatants were dried and redissolved in 50% methanol for HPLC analysis using method A described below.

T1 sequence (P08684 2-503 limits assumed): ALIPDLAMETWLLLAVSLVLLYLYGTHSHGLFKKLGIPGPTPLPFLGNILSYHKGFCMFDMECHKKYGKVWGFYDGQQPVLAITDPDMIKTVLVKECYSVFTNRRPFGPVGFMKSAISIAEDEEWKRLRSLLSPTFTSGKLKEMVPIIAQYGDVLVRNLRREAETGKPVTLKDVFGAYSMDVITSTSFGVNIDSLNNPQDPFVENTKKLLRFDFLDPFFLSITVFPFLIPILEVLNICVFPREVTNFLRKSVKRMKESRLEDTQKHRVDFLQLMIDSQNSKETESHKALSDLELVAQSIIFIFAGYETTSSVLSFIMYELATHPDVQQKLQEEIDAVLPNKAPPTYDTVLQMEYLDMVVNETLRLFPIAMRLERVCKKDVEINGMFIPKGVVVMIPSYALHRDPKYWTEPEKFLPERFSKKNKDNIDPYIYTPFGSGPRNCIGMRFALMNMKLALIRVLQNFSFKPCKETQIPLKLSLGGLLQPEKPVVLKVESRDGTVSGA

parent compound remained after incubation [1]: ~50%
conversion to the corresponding glucuronide [2]: ~20%
CYP isozyme primarily responsible for the metabolic step [3]: CYP3A4
SMILES: C[C@@H](O[C@H]1OCCN[C@H]1c1ccc(F)cc1)c1cc(C(F)(F)F)cc(C(F)(F)F)c1 [Metabolite M-1, (2R,3S)-2-[(1R)-1-[3,5-bis(trifluoromethyl)phenyl]ethoxy]-3-(4-fluorophenyl)morpholine]

Source: patent US6727244B2, “Mammalian metabolites of a tachykinin receptor antagonist” (Merck & Co., Inc., priority 2000, dated 2004)
